ChEMBL document CHEMBL1629634, “Postantibiotic effect of tigecycline against 14 gram-positive organisms” (Antimicrob Agents Chemother, 2009)

Tests used:
Escherichia coli [1] = test: Antibacterial activity against Escherichia coli infected in neutropenic mouse thighs assessed as post antibiotic effect; type: functional, Thigh muscle
Streptococcus pneumoniae [2] = test: Antibacterial activity against penicillin-susceptible Streptococcus pneumoniae assessed as post-antibiotic sub-MIC effect at 0.3 times MIC concentration pretreated with 10 times MIC concentration for 1 hr followed by 1:1000 dilution by viable plate count method; type: functional
Escherichia coli [3] = test: Antibacterial activity against Escherichia coli assessed as sub-MIC effect at 0.3 times MIC concentration incubated for 1 hr by viable plate count method; type: functional
Staphylococcus aureus = test: Antibacterial activity against vancomycin-intermediate methicillin-resistant Staphylococcus aureus assessed as post antibiotic effect at 6 times MIC concentration incubated for 1 hr measured after 1:1000 dilution by viable plate count method; type: functional
Enterococcus faecium = test: Antibacterial activity against Enterococcus faecium assessed as post antibiotic effect; type: functional
Enterococcus faecalis [4] = test: Antibacterial activity against vancomycin-resistant Enterococcus faecalis assessed as sub-MIC effect at 0.2 times MIC concentration incubated for 1 hr by viable plate count method; type: functional
Escherichia coli [5] = test: Antibacterial activity against Escherichia coli assessed as sub-MIC effect at 0.4 times MIC concentration incubated for 1 hr by viable plate count method; type: functional
Haemophilus influenzae = test: Antibacterial activity against beta-lactamase deficient and ampicillin-resistant Haemophilus influenzae assessed as post antibiotic effect at 10 times MIC concentration incubated for 1 hr measured after 1:1000 dilution by viable plate count method; type: functional
Enterococcus faecalis [6] = test: Antibacterial activity against vancomycin-sensitive Enterococcus faecalis assessed as post-antibiotic sub-MIC effect at 0.4 times MIC concentration pretreated with 10 times MIC concentration for 1 hr followed by 1:1000 dilution by viable plate count method; type: functional
Acinetobacter baumannii = test: Antibacterial activity against multidrug-resistant Acinetobacter baumannii producing OXA-24 and OXA-51 beta-lactamases assessed as post antibiotic effect at 2 times MIC concentration incubated for 1 hr measured after 1:1000 dilution by viable plate count method; type: functional
Klebsiella pneumoniae = test: Antibacterial activity against Klebsiella pneumoniae assessed as post antibiotic effect at 2 times MIC concentration incubated for 1 hr measured after 1:1000 dilution by viable plate count method; type: functional
Streptococcus pneumoniae [7] = test: Antibacterial activity against penicillin-intermediate Streptococcus pneumoniae assessed as sub-MIC effect at 0.4 times MIC concentration incubated for 1 hr by viable plate count method; type: functional

CN(C)c1cc(NC(=O)CNC(C)(C)C)c(O)c2c1C[C@H]1C[C@H]3[C@H](N(C)C)C(O)=C(C(N)=O)C(=O)[C@@]3(O)C(O)=C1C2=O [TIGECYCLINE]
PAE (Escherichia coli [1]): 4.9 h
PAE (Streptococcus pneumoniae [2]): 8.8 h
PAE (Escherichia coli [3]): 0 h
PAE (Staphylococcus aureus): 4 h
PAE (Enterococcus faecium): 2.5 h
PAE (Enterococcus faecalis [4]): 0.4 h
PAE (Escherichia coli [5]): 0.1 h
PAE (Haemophilus influenzae): 1.1 h
PAE (Enterococcus faecalis [6]): 8.2 h
PAE (Acinetobacter baumannii): 0.7 h
PAE (Klebsiella pneumoniae): 1.7 h
PAE (Streptococcus pneumoniae [7]): 7.7 h
